Measured values: patent publication US9179674B2, “Macrocyclic picolinamide compounds with fungicidal activity” (DOW AGROSCIENCES LLC, priority 2013, dated 2015)

Experiments:
Format in all cases: in vivo
[1] = system: Cercospora beticola; assay: Leaf Spot of Sugar Beets fungicidal activity (CERCBE); conditions: 24 h, 1 Day Protectant, sugar beet, read-out: Disease Control CERCBE 1DP
Method: Technical grades of materials were dissolved in acetone, which were then mixed with nine volumes of water containing 110 ppm Triton X-100. The fungicide solutions were applied onto wheat seedlings using an automated booth sprayer to run-off. All sprayed plants were allowed to air dry prior to further handling. All fungicides were evaluated using the aforementioned method for their activity vs. all target diseases. Wheat leaf blotch and brown rust activity were also evaluated using track spray applications, in which case the fungicides were formulated as EC formulations, containing 0.1% Trycol 5941 in the spray solutions. Wheat plants (variety Yuma) were grown from seed in a greenhouse in 50% mineral soil/50% soil-less Metro mix until the first leaf was fully emerged, with 7-10 seedlings per pot. These plants were inoculated with an aqueous spore suspension of Septoria tritici either prior to or after fungicide treatments. After inoculation the plants were kept in 100% relative humidity (one day in a dark dew chamber followed by two to three days in a lighted dew chamber at 20° C.) to permit spores to germinate and infect the leaf. The plants were then transferred to a greenhouse set at 20° C. for disease to develop. When disease symptoms were fully expressed on the 1st leaves of untreated plants, infection levels were assessed on a scale of 0 to 100 percent disease severity. Percent disease control was calculated using the ratio of disease severity on treated plants relative to untreated plants. Evaluation of Fungicidal Activity: Leaf Spot of Sugar Beets (Cercospora beticola; Bayer Code CERCBE) Sugar beet plants (variety HH88) were grown in soil-less Metro mix and trimmed regularly to maintain a uniform plant size prior to test. Plants were inoculated with a spore suspension 24 hr after fungicide treatments. Inoculated plants were kept in a dew chamber at 22° C. for 48 hr then incubated in a greenhouse set at 24° C. under a clear plastic hood with bottom ventilation until disease symptoms were fully expressed. Fungicide formulation, application and disease assessment on the sprayed leaves followed the procedures as described in the Example A.

[2] = system: Erysiphe cichoracearum; assay: Powdery Mildew of Cucumber fungicidal activity (ERYSCI); conditions: Golovinomyces cichoracearum, 24 h, 1 Day Protectant, read-out: Disease Control ERYSCI 1DP
Method: Technical grades of materials were dissolved in acetone, which were then mixed with nine volumes of water containing 110 ppm Triton X-100. The fungicide solutions were applied onto wheat seedlings using an automated booth sprayer to run-off. All sprayed plants were allowed to air dry prior to further handling. All fungicides were evaluated using the aforementioned method for their activity vs. all target diseases. Wheat leaf blotch and brown rust activity were also evaluated using track spray applications, in which case the fungicides were formulated as EC formulations, containing 0.1% Trycol 5941 in the spray solutions. Wheat plants (variety Yuma) were grown from seed in a greenhouse in 50% mineral soil/50% soil-less Metro mix until the first leaf was fully emerged, with 7-10 seedlings per pot. These plants were inoculated with an aqueous spore suspension of Septoria tritici either prior to or after fungicide treatments. After inoculation the plants were kept in 100% relative humidity (one day in a dark dew chamber followed by two to three days in a lighted dew chamber at 20° C.) to permit spores to germinate and infect the leaf. The plants were then transferred to a greenhouse set at 20° C. for disease to develop. When disease symptoms were fully expressed on the 1st leaves of untreated plants, infection levels were assessed on a scale of 0 to 100 percent disease severity. Percent disease control was calculated using the ratio of disease severity on treated plants relative to untreated plants. Evaluation of Fungicidal Activity: Powdery Mildew of Cucumber (Erysiphe cichoracearum; Bayer Code […]) Cucumber seedlings (variety Bush Pickle) were grown in soil-less Metro mix, with one plant per pot, and used in the test when 12 to 14 days old. Plants were inoculated with a spore suspension 24 hr following fungicide treatments. After inoculation the plants remained in the greenhouse set at 20° C. until disease was fully expressed. Fungicide formulation, application and disease assessment on the sprayed leaves followed the procedures as described in the Example A.

[3] = system: Alternaria solani; assay: Tomato Early Blight fungicidal activity (ALTESO); conditions: 24 h, 1 Day Protectant, read-out: Disease Control ALTESO 1DP
Method: Technical grades of materials were dissolved in acetone, which were then mixed with nine volumes of water containing 110 ppm Triton X-100. The fungicide solutions were applied onto wheat seedlings using an automated booth sprayer to run-off. All sprayed plants were allowed to air dry prior to further handling. All fungicides were evaluated using the aforementioned method for their activity vs. all target diseases. Wheat leaf blotch and brown rust activity were also evaluated using track spray applications, in which case the fungicides were formulated as EC formulations, containing 0.1% Trycol 5941 in the spray solutions. Wheat plants (variety Yuma) were grown from seed in a greenhouse in 50% mineral soil/50% soil-less Metro mix until the first leaf was fully emerged, with 7-10 seedlings per pot. These plants were inoculated with an aqueous spore suspension of Septoria tritici either prior to or after fungicide treatments. After inoculation the plants were kept in 100% relative humidity (one day in a dark dew chamber followed by two to three days in a lighted dew chamber at 20° C.) to permit spores to germinate and infect the leaf. The plants were then transferred to a greenhouse set at 20° C. for disease to develop. When disease symptoms were fully expressed on the 1st leaves of untreated plants, infection levels were assessed on a scale of 0 to 100 percent disease severity. Percent disease control was calculated using the ratio of disease severity on treated plants relative to untreated plants. Evaluation of Fungicidal Activity: Tomato Early Blight (Alternaria solani; Bayer Code […]) Tomato plants (variety Outdoor girl) were propagated in soil-less Metro mix, with each pot having one plant, and used when 12 to 14 days old. Test plants were inoculated with an aqueous spore suspension of Alternaria solani 24 hr after fungicide treatments. After inoculation the plants were kept in 100% relative humidity (one day in a dark dew chamber followed by two to three days in a lighted dew chamber at 20° C.) to permit spores to germinate and infect the leaf. The plants were then transferred to a growth room at 22° C. for disease to develop. Fungicide formulation, application and disease assessment on the sprayed leaves followed the procedures as described in the Example A.

Compound	pest or weed control at 100 ppm [1] [%]	pest or weed control at 100 ppm [2] [%]	pest or weed control at 100 ppm [3] [%]
COc1ccnc(C(=O)N[C@H]2COC[C@H](Cc3ccc(F)cc3)[C@@H](OCC(C)C)[C@H](C)OC2=O)c1OC(C)=O [Compound F60]	80 to 100	80 to 100	
COc1ccnc(C(=O)N[C@H]2COC[C@H](Cc3ccc(Cl)cc3Cl)[C@@H](OC(=O)C(C)C)[C@H](C)OC2=O)c1OC(C)=O [Compound F73]	80 to 100	0 to 80	0 to 80
COc1ccnc(C(=O)N[C@H]2COC[C@H](Cc3ccc(C)cc3)[C@@H](OCC(C)C)[C@H](C)OC2=O)c1OC(C)=O [Compound F80]	80 to 100	80 to 100	80 to 100
COc1ccnc(C(=O)N[C@H]2COC[C@H](CCc3ccccc3)[C@@H](OCC(C)C)[C@H](C)OC2=O)c1OCOC(C)=O [Compound F82]	0 to 80	0 to 80	0 to 80
COc1ccnc(C(=O)N[C@H]2COC[C@H](Cc3cccc4ccccc34)[C@@H](OC(=O)C(C)C)[C@H](C)OC2=O)c1OCOC(C)=O [Compound F83, (3S,6S,7R,8S)-3-(3-(acetoxymethoxy)-4-methoxypicolin-amido)-6-methyl-8-(naphthalen-1-ylmethyl)-4-oxo-1,5-dioxonan-7-yl isobutyrate]	80 to 100		
COc1ccnc(C(=O)N[C@H]2COC[C@H](Cc3ccc(F)cc3)[C@@H](OCC(C)C)[C@H](C)OC2=O)c1OCOC(C)=O [Compound F96]	80 to 100	80 to 100	80 to 100
COc1ccnc(C(=O)N[C@H]2COC[C@H](CC(F)(F)F)[C@@H](OC3CCCC3)[C@H](C)OC2=O)c1OCOC(C)=O [Compound F105]	80 to 100	0 to 80	0 to 80
COc1ccnc(C(=O)N[C@H]2COC[C@H](CCC(C)C)[C@@H](OCCCC(F)(F)F)[C@H](C)OC2=O)c1OCOC(C)=O [Compound F107]	80 to 100	80 to 100	80 to 100
COc1ccnc(C(=O)N[C@H]2COC[C@H](CCC(C)C)[C@@H](OC(=O)C3CC3)[C@H](C)OC2=O)c1OCOC(C)=O [Compound F108]	80 to 100	80 to 100	80 to 100
COc1ccnc(C(=O)N[C@H]2COC[C@H](Cc3ccc(Cl)cc3Cl)[C@@H](OC(=O)C(C)C)[C@H](C)OC2=O)c1OCOC(C)=O [Compound F110]	80 to 100	0 to 80	80 to 100
COc1ccnc(C(=O)N[C@H]2COC[C@H](CC3CCCC3)[C@@H](OC(=O)C(C)C)[C@H](C)OC2=O)c1OCOC(C)=O [Compound F114]	80 to 100	80 to 100	80 to 100
COc1ccnc(C(=O)N[C@H]2COC[C@H](Cc3ccc(C)cc3)[C@@H](OCC(C)C)[C@H](C)OC2=O)c1OCOC(C)=O [Compound F117]	80 to 100	80 to 100	80 to 100
CCCCCO[C@@H]1[C@@H](Cc2ccc(Cl)cc2Cl)COC[C@H](NC(=O)c2nccc(OC)c2OCOC(=O)COCC)C(=O)O[C@H]1C [Compound F122]	80 to 100	0 to 80	80 to 100
CCCCCO[C@@H]1[C@@H](Cc2ccc(Cl)cc2Cl)COC[C@H](NC(=O)c2nccc(OC)c2OC(=O)CCOC)C(=O)O[C@H]1C [Compound F123]	80 to 100	80 to 100	80 to 100
